Test results taken from article PMC9848257, “Design and synthesis of novel rigid dibenzo[b,f]azepines through ring closure technique as promising anticancer candidates against leukaemia and acting as selective topoisomerase II inhibitors and DNA intercalators” (Journal of Enzyme Inhibition and Medicinal Chemistry, 2023).

Legend:
Format in all cases: cell-based
HOP-92 = assay: NCI-60 one-dose screen, HOP-92; settings: Homo sapiens; HOP-92, non-small cell lung cancer; single dose 10 μM; read-out: Growth inhibition %
Procedure: (§1) Anti-proliferative effects of the counterparts 4a–g and 5a–g were screened against 60 human cancer cell lines, following the Developmental Therapeutics Program protocol, National Cancer Institute[35].
(§2) The anti-tumour activity of the fourteen synthesised congeners was investigated at the NCI against a panel of 60 cancer cell lines (NCI-60 Cell One-Dose Screen). The tested dibenzo[b,f]azepine derivatives were screened at a single dose level (10 μM), Table 1.

MOLT-4 = assay: NCI-60 one-dose screen, MOLT-4; settings: Homo sapiens; MOLT-4, leukaemia; single dose 10 μM; read-out: Growth inhibition %
Procedure: as §1, §2

HL-60(TB) = assay: NCI-60 one-dose screen, HL-60(TB); settings: Homo sapiens, leukaemia, single dose 10 μM, read-out: Growth inhibition %
Procedure: as §1, §2

SW-620 = assay: NCI-60 one-dose screen, SW-620; settings: Homo sapiens; SW-620, colon cancer; single dose 10 μM; read-out: Growth inhibition %
Procedure: as §1, §2

SN12C = assay: NCI-60 one-dose screen, SN12C; settings: Homo sapiens, renal cancer, single dose 10 μM, read-out: Growth inhibition %
Procedure: as §1, §2

SR = assay: NCI-60 one-dose screen, SR; settings: Homo sapiens, leukaemia, single dose 10 μM, read-out: Growth inhibition %
Procedure: as §1, §2

SF-295 = assay: NCI-60 one-dose screen, SF-295; settings: Homo sapiens; SF-295, CNS cancer; single dose 10 μM; read-out: Growth inhibition %
Procedure: as §1, §2

MDA-MB-468 = assay: NCI-60 one-dose screen, MDA-MB-468; settings: Homo sapiens; MDA-MB-468, breast cancer; single dose 10 μM; read-out: Growth inhibition %
Procedure: as §1, §2

PC-3 = assay: NCI-60 one-dose screen, PC-3; settings: Homo sapiens; PC-3, prostate cancer; single dose 10 μM; read-out: Growth inhibition %
Procedure: as §1, §2

A498 = assay: NCI-60 one-dose screen, A498; settings: Homo sapiens; A498, renal cancer; single dose 10 μM; read-out: Growth inhibition %
Procedure: as §1, §2

MCF-7 = assay: NCI-60 one-dose screen, MCF-7; settings: Homo sapiens, MCF7; MCF-7, breast cancer; single dose 10 μM; read-out: Growth inhibition %
Procedure: as §1, §2

M14 = assay: NCI-60 one-dose screen, M14; settings: Homo sapiens; M14, melanoma; single dose 10 μM; read-out: Growth inhibition %
Procedure: as §1, §2

OVCAR-3 = assay: NCI-60 one-dose screen, OVCAR-3; settings: Homo sapiens; OVCAR-3, ovarian cancer; single dose 10 μM; read-out: Growth inhibition %
Procedure: as §1, §2

EKVX = assay: NCI-60 one-dose screen, EKVX; settings: Homo sapiens, non-small cell lung cancer, single dose 10 μM, read-out: Growth inhibition %
Procedure: as §1, §2

RPMI-8226 = assay: NCI-60 one-dose screen, RPMI-8226; settings: Homo sapiens; RPMI-8226, leukaemia; single dose 10 μM; read-out: Growth inhibition %
Procedure: as §1, §2

KM12 = assay: NCI-60 one-dose screen, KM12; settings: Homo sapiens; KM12, colon cancer; single dose 10 μM; read-out: Growth inhibition %
Procedure: as §1, §2

A549-ATCC = assay: NCI-60 one-dose screen, A549-ATCC; settings: Homo sapiens, non-small cell lung cancer, single dose 10 μM, read-out: Growth inhibition %
Procedure: as §1, §2

SF-268 = assay: NCI-60 one-dose screen, SF-268; settings: Homo sapiens; SF-268, CNS cancer; single dose 10 μM; read-out: Growth inhibition %
Procedure: as §1, §2

HCT-116 = assay: NCI-60 one-dose screen, HCT-116; settings: Homo sapiens; HCT-116, colon cancer; single dose 10 μM; read-out: Growth inhibition %
Procedure: as §1, §2

SF-539 = assay: NCI-60 one-dose screen, SF-539; settings: Homo sapiens; SF-539, CNS cancer; single dose 10 μM; read-out: Growth inhibition %
Procedure: as §1, §2

NCI-H460 = assay: NCI-60 one-dose screen, NCI-H460; settings: Homo sapiens; NCI-H460, non-small cell lung cancer; single dose 10 μM; read-out: Growth inhibition %
Procedure: as §1, §2

T-47D = assay: NCI-60 one-dose screen, T-47D; settings: Homo sapiens, T47D, breast cancer, single dose 10 μM, read-out: Growth inhibition %
Procedure: as §1, §2

HT29 = assay: NCI-60 one-dose screen, HT29; settings: Homo sapiens, HT-29; HT29, colon cancer; single dose 10 μM; read-out: Growth inhibition %
Procedure: as §1, §2

SK-MEL-28 = assay: NCI-60 one-dose screen, SK-MEL-28; settings: Homo sapiens; SK-MEL-28, melanoma; single dose 10 μM; read-out: Growth inhibition %
Procedure: as §1, §2

LOX IMVI = assay: NCI-60 one-dose screen, LOX IMVI; settings: Homo sapiens, melanoma, single dose 10 μM, read-out: Growth inhibition %
Procedure: as §1, §2

Measured: inhibition at 10 µM

O=C(NNC(=O)N1c2ccccc2C=Cc2ccccc21)c1ccc(Cl)cc1 [Compound 4c, N′-(4-Chlorobenzoyl)-5H-dibenzo[b,f]azepine-5-carbohydrazide]
< 10%: all assays above

O=C(NNC(=O)N1c2ccccc2C=Cc2ccccc21)c1ccc([N+](=O)[O-])cc1 [Compound 4e, N′-(4-Nitrobenzoyl)-5H-dibenzo[b,f]azepine-5-carbohydrazide]
< 10%: all assays above

O=C(NNC(=O)N1c2ccccc2C=Cc2ccccc21)c1ccccc1 [Compound 4a, N′-Benzoyl-5H-dibenzo[b,f]azepine-5-carbohydrazide]
< 10%: all assays above

Cc1ccc(C(=O)NNC(=O)N2c3ccccc3C=Cc3ccccc32)cc1 [Compound 4d, N′-(4-Methylbenzoyl)-5H-dibenzo[b,f]azepine-5-carbohydrazide]
< 10%: all assays above
